PubChem BioAssay (NCI)
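Following 48 hours of exposure in 96-well plates, responses at five concentrations were used to interpolate endpoints linearly. TGI denotes the concentration required for complete inhibition of growth.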

How the values were obtained:
Test in all cases: inhibition of tumour cell growth, NCI panel, 48 h
HCT-15 colon = system: HCT-15 colon
NCI-H460 lung = system: NCI-H460 lung
MDA-MB-435 = system: MDA-MB-435
SW-620 colon = system: SW-620 colon
SK-OV-3 ovarian = system: SK-OV-3 ovarian
A498 renal = system: A498 renal
SK-MEL-28 melanoma = system: SK-MEL-28 melanoma
MDA-N = system: MDA-N
DU-145 prostate = system: DU-145 prostate
BT-549 breast = system: BT-549 breast

SMILES	TGI (HCT-15 colon)	TGI (NCI-H460 lung)	TGI (MDA-MB-435)	TGI (SW-620 colon)	TGI (SK-OV-3 ovarian)	TGI (A498 renal)	TGI (SK-MEL-28 melanoma)	TGI (MDA-N)	TGI (DU-145 prostate)	TGI (BT-549 breast)
C[C@H]1CCC/C=C/[C@@H]2C[C@H](OC3OC(CO)C(O)C(O)C3O)C[C@H]2[C@H](O)/C=C/C(=O)O1 (stereo not given in full)	> 100 µM	> 100 µM	> 100 µM	> 100 µM	> 100 µM	69.1 µM	87.3 µM	> 100 µM	> 100 µM	> 100 µM
COc1cc(C=O)cc(C=Nc2ccc(Br)cc2)c1O	> 100 µM	37.5 µM	32.5 µM	> 100 µM	7.83 µM	40.7 µM	> 100 µM	35.7 µM	> 100 µM	> 100 µM
CCCCCCCCCCCC1=C(O)C(=O)C(CC2=C(O)C(=O)C(CCCCCCCCCCC)=C(O)C2=O)=C(O)C1=O	> 100 µM	> 100 µM	> 100 µM	> 100 µM	> 100 µM	98.2 µM	> 100 µM	> 100 µM	> 100 µM	> 100 µM
O=C(N/N=C/c1ccccc1)c1c(F)c(F)c(F)c(F)c1F	> 100 µM	> 100 µM	> 100 µM	> 100 µM	> 100 µM	> 100 µM	> 100 µM	> 100 µM	> 100 µM	> 100 µM
COc1ccc(S(=O)(=O)NC(CCC(=O)NC(N)=O)C(=O)NC(N)=O)cc1 (stereo not given)	> 100 µM	> 100 µM	> 100 µM	> 100 µM	> 100 µM	> 100 µM	> 100 µM	> 100 µM	> 100 µM	> 100 µM
Nc1c(C(=O)O)c2ccc([N+](=O)[O-])cc2c(=O)n1-c1nc2ccccc2s1	> 100 µM	> 100 µM	> 100 µM	> 100 µM	> 100 µM	> 100 µM	> 100 µM	> 100 µM	> 100 µM	> 100 µM
O=[N+]([O-])/C=C/c1cc(Cl)c(/C=C/[N+](=O)[O-])cc1Cl	4.19 µM	52.9 µM	4.17 µM	6.06 µM	> 56.6 µM	14.2 µM	–	8.19 µM	7.96 µM	3.25 µM
CCc1c(O)nc(Nc2nc3ccccc3[nH]2)[nH]c1=O	> 100 µM	> 100 µM	> 100 µM	> 100 µM	> 100 µM	> 100 µM	> 100 µM	> 100 µM	> 100 µM	> 100 µM
OCCN1CCN(c2nc(N3CCCC3)c3nc(Cl)c(NCc4ccccc4)nc3n2)CC1	7.91 µM	18.1 µM	10.7 µM	17.5 µM	27.5 µM	25 µM	9.08 µM	8.47 µM	23.6 µM	20.7 µM
O=C(Nc1cccc2ccccc12)c1cc2ccccc2oc1=O	> 100 µM	> 100 µM	> 100 µM	> 100 µM	> 100 µM	> 100 µM	> 100 µM	> 100 µM	> 100 µM	> 100 µM
O=C(O)[C@H]1NC[C@H]2C(Br)=NO[C@@H]12	> 100 µM	> 100 µM	> 100 µM	> 100 µM	> 100 µM	> 100 µM	> 100 µM	> 100 µM	> 100 µM	> 100 µM
Cc1n[nH]c(=O)n1-n1cccc1	> 100 µM	> 100 µM	> 100 µM	> 100 µM	> 100 µM	> 100 µM	> 100 µM	> 100 µM	> 100 µM	> 100 µM
CC1(C)C(=O)/C(=C/c2ccccc2)C(C)(C)C1(C)C	> 100 µM	> 100 µM	> 86.6 µM	> 100 µM	> 100 µM	> 96.2 µM	> 100 µM	> 100 µM	> 100 µM	> 100 µM
COc1cc2c(cc1O)C(Cc1ccc(OCc3ccccc3)c(OCc3ccccc3)c1)N(C(=O)NCCc1ccccc1)CC2 (stereo not given)	> 100 µM	> 100 µM	> 100 µM	> 100 µM	> 100 µM	> 100 µM	–	> 100 µM	> 100 µM	> 100 µM
Cc1nc(C(=Nc2ccc(Br)cc2)Nn2cnnc2)no1	> 100 µM	> 100 µM	> 100 µM	> 100 µM	> 100 µM	> 100 µM	> 100 µM	> 100 µM	> 100 µM	> 100 µM
COC(=O)CCC(C)[C@H]1CCC2C3CC[C@@H]4CC5(CC[C@]4(C)C3C[C@H](OC(C)=O)[C@@]21C)OOC1(CCCCC1)OO5 (stereo not given in full)	> 100 µM	> 100 µM	37 µM	–	> 100 µM	> 100 µM	> 100 µM	35 µM	43.1 µM	> 100 µM
CC1(C)CCC[C@@]2(C)C1CC[C@@]1(CO)O[C@H](C3=CC(=O)OC3O)C[C@H]12 (stereo not given in full)	23.5 µM	38.8 µM	24.6 µM	22.3 µM	72.6 µM	30.1 µM	25.6 µM	25.8 µM	17.8 µM	20.7 µM
CC[C@]1(c2ccc3c(c2)OCO3)C=[N+]([O-])O[C@H](OC2CCCC2(c2ccccc2)c2ccccc2)[C@@H]1OC(C)=O (stereo not given in full)	6.18 µM	4.91 µM	4.1 µM	> 100 µM	14.4 µM	2.94 µM	–	> 30.2 µM	7.44 µM	8.43 µM
COc1ccc(O[C@H](CO)C[C@@H]2COC(C)(C)O2)cc1	> 100 µM	> 100 µM	> 100 µM	> 100 µM	> 100 µM	> 100 µM	> 100 µM	> 100 µM	> 100 µM	> 100 µM
COc1cc2c(cc1OC)C1=C(C=O)c3ccc(OC)c(OC)c3C(O)N1CC2 (stereo not given)	> 100 µM	> 100 µM	> 100 µM	> 100 µM	> 100 µM	72.5 µM	> 100 µM	> 100 µM	87.5 µM	70.1 µM
C[n+]1c2ccccc2n2c3ccccc3c(NCCCn3ccnc3)c(C#N)c21	12 µM	3.63 µM	9.4 µM	–	38.8 µM	46.5 µM	13.3 µM	9.82 µM	15.5 µM	> 100 µM
